# Results as given in PMC4226186, “Biobleaching of Industrial Important Dyes with Peroxidase Partially Purified from Garlic” (The Scientific World Journal, 2014).
# Tested on: T1, garlic peroxidase (Allium sativum peroxidase)
# T1 construct: gene class III plant peroxidase; native, partially purified from peeled garlic (ammonium sulphate, dialysis, Sephadex G-200)
# Test: absorbance change on o-dianisidine oxidation; Lineweaver-Burk plot
# Type: biochemical
# Conditions: co-substrate H2O2; 0.05 M sodium phosphate pH 6.0; 20-120 mM o-dianisidine; partially purified enzyme
smiles,measurement,value
COc1cc(-c2ccc(N)c(OC)c2)ccc1N [o-dianisidine],Km,25 mM
